# Experimental data from paper PMC10233823, “Conjugates of Aminoglycosides with Stapled Peptides as a Way to Target Antibiotic-Resistant Bacteria” (ACS Omega, 2023).
# Where two headings read alike, the source gives them in different places. Ends that are not written are not given here. Peptide text beside a SMILES is read from it. * marks the point of attachment. X2 = NC[C@@H]1O[C@H](O[C@H]2[C@@H](O)[C@H](O[C@@H]3[C@@H](O)[C@H](N)C[C@H](N)[C@H]3O[C@H]3O[C@H](CN)[C@@H](O)[C@H](O)[C@H]3N)O[C@@H]2CS*)[C@H](N)[C@@H](O)[C@@H]1O
# What was measured:
# [1] = system: E. coli K12 MG1655; assay: microbe, parasite or virus in culture; type: cell-based, Escherichia coli; conditions: MIC wells diluted 10-, 100-, 1000-times in fresh MHB, 24 h, 37 °C, bactericidal if no growth at 100- and 1000-times dilutions
# Protocol: (§1) The antibacterial activity of the conjugates was assessed by determining their minimum inhibitory concentration (MIC) and minimum bactericidal concentration (MBC) against Gram-negative E. coli (K12 MG 1655 and WR 3551/98) and Gram-positive S. aureus (ATCC 29213 and ATCC BAA1720 MRSA) strains (Table 1, Figures S16–S23).
# (§2) The MBC values were determined by diluting wells from the MIC experiment plate in fresh MHB medium. Dilutions of 10-, 100-, and 1000-times were prepared for the MIC well and up to two-folds higher than MIC concentrations of a given compound. Dilutions were made on a transparent flat-bottom 96-well plate (Nest), which was then sealed and incubated for 24 h, at 37 °C with shaking. The growth of a given sample well was compared with GC and SC controls.
# [2] = system: E. coli WR 3551/98; assay: microbe, parasite or virus in culture; type: cell-based, Escherichia coli; conditions: 24 h, 37 °C
# Protocol: as §1, §2
# [3] = system: E. coli K12 MG1655; assay: microbe, parasite or virus in culture; type: cell-based, Escherichia coli; conditions: MHB, 20 h, 37 °C with shaking, OD600, at least two biological replicates of two technical replicates
# Protocol: as §1
# (§3) The MIC values were determined as follows. Bacteria were first cultured overnight in 2 mL of lysogeny broth (LB, VWR Chemicals) at 37 °C with shaking. Next, 20 μL of overnight culture was transferred into 2 mL of […] (MHB, Difco) medium and further cultured at 37 °C with shaking until the culture reached OD600 = 0.3. Subsequently, the culture was diluted 1:100 in a fresh MHB medium, and aliquots of 50 μL were mixed with 50 μL of previously prepared dilutions of the tested compound in MHB on a transparent flat-bottom 96-well plate (Nest). The plate was then sealed with transparent foil (Titer-Tops) and incubated for 20 h, at 37 °C with shaking. Following incubation, optical density at 600 nm was measured using a Tecan Sunrise plate reader. Growth inhibition was determined by comparing the given sample with untreated culture (growth control—GC) with MHB alone (sterility control—SC) as an additional reference. The experiment was conducted in at least two biological replicates of two technical replicates each. Statistical significance was determined by the two-way ANOVA test using GraphPad Prism 9 software.
# [4] = system: E. coli WR 3551/98; assay: microbe, parasite or virus in culture; type: cell-based, Escherichia coli; conditions: for MIC: E. coli WR 3551/98 (AMK-resistant), MHB, 20 h, 37 °C with shaking, OD600
# Protocol: as §1, §3
# [5] = system: S. aureus ATCC 29213; assay: microbe, parasite or virus in culture; type: cell-based, Staphylococcus aureus; conditions: 20 h, 37 °C with shaking, OD600
# Protocol: as §1, §3
# [6] = system: S. aureus ATCC BAA1720 MRSA; assay: microbe, parasite or virus in culture; type: cell-based, Staphylococcus aureus; conditions: S. aureus ATCC BAA1720 MRSA (NEO-resistant), MHB, 20 h, 37 °C with shaking, OD600
# Protocol: as §1, §3
# [7] = system: S. aureus ATCC 29213; assay: microbe, parasite or virus in culture; type: cell-based, Staphylococcus aureus; conditions: 24 h, 37 °C
# Protocol: as §1, §2
# [8] = system: S. aureus ATCC BAA1720 MRSA; assay: microbe, parasite or virus in culture; type: cell-based, Staphylococcus aureus; conditions: MIC wells diluted in fresh MHB, 24 h, 37 °C
# Protocol: as §1, §2
# [9] = system: S. aureus ATCC 29213; assay: Checkerboard synergy test; type: cell-based, Staphylococcus aureus; conditions: MIC not determined, tested range up to 128 μM
# Protocol: The synergy between the compounds was assessed using the checkerboard method in a similar way as mentioned in our previous study.[79],[80] Bacteria were first cultured overnight in 2 mL of LB (VWR Chemicals) at 37 °C with shaking. Next, 20 μL of overnight culture was transferred into 2 mL of MHB medium and further cultured at 37 °C with shaking until the culture reached OD600 = 0.3. Subsequently, culture was diluted 1:200 in a fresh MHB medium, and aliquots of 90 μL were mixed with 10 μL of previously prepared dilutions of tested compounds in MHB on a transparent flat-bottom 96-well plate (Nest). The plate was then sealed with transparent adhesive foil (Titer-Tops) and incubated for 20 h, at 37 °C with shaking. Following incubation, optical density at 600 nm was measured using the Tecan Sunrise plate reader. Growth inhibition was determined by comparing the given sample with untreated culture (GC) with MHB alone (SC) as an additional reference. The FIC index was calculated for the first cell within each row and column where growth inhibition was observed. The following formula was used [drawing 1] Ca, Cb—concentration of the agent in combination, and MICa, MICb—MICs for agent a and agent b alone.
# Then, the median FIC was determined for the entire checkerboard. In addition, the minimal and maximal values were distinguished (Table 2). […]
# [10] = MIC wells diluted in fresh MHB, read-out: MBC
# [11] = Escherichia coli, read-out: MBC
# [12] = Escherichia coli, WR3551/98, MIC wells diluted in fresh MHB, read-out: MBC
# [13] = Staphylococcus aureus, ATCC29213, MHB
# [14] = Staphylococcus aureus, ATCC29213, MIC wells diluted in fresh MHB, read-out: MBC
Molecule,MBC ([1]; read-out: MBC) [µM],MIC [3] [µM],MIC [4] [µM],MIC ([5]; MHB) [µM],MIC [6] [µM],"MBC [7, 10] [µM]",MBC [8] [µM],"MBC [2, 10] [µM]",further results
CC[C@H](C)[C@H](NC(=O)[C@H](CCCNC(=N)N)NC(=O)[C@H](CCCCN)NC(=O)[C@H](CC(C)C)NC(=O)[C@H](CC(C)C)NC(=O)CNC(=O)CCCCCCCCc1cn(C[C@H]2O[C@H](O[C@@H]3[C@@H](O)[C@H](O[C@H]4O[C@H](CN)[C@@H](O)[C@H](O)[C@H]4O)[C@@H](N)C[C@H]3NC(=O)[C@@H](O)CCN)[C@H](O)[C@@H](N)[C@@H]2O)nn1)C(=O)N[C@@H](CCCCN)C(=O)N[C@H](C(=O)N[C@@H](CC(C)C)C(=O)N[C@@H](CC(C)C)C(N)=O)[C@@H](C)O [AMK-anoplin] (HELM PEPTIDE1{[NCC[C@H](O)C(=O)N[C@@H]1C[C@H](N)[C@@H](O[C@H]2O[C@H](CN)[C@@H](O)[C@H](O)[C@H]2O)[C@H](O)[C@H]1O[C@H]1O[C@H](Cn2cc(CCCCCCCCC(=O)[*:2])nn2)[C@@H](O)[C@H](N)[C@H]1O].G.L.L.K.R.I.K.T.L.L.[am]}$$$$V2.0),16,16,16,32,>32,>32,>32,,MBC ([2]; MIC wells diluted in fresh MHB): 16 to 32 µM
CC[C@H](C)[C@H](NC(=O)[C@H](CCCNC(=N)N)NC(=O)[C@H](CCCCN)NC(=O)[C@H](CC(C)C)NC(=O)[C@H](CC(C)C)NC(=O)CNC(=O)[C@@H](N)CSSC[C@H]1O[C@@H](O[C@@H]2[C@@H](O)[C@H](N)C[C@H](N)[C@H]2O[C@H]2O[C@H](CN)[C@@H](O)[C@H](O)[C@H]2N)[C@H](O)[C@@H]1O[C@H]1O[C@@H](CN)[C@@H](O)[C@H](O)[C@H]1N)C(=O)N[C@@H](CCCCN)C(=O)N[C@H](C(=O)N[C@@H](CC(C)C)C(=O)N[C@@H](CC(C)C)C(N)=O)[C@@H](C)O [NEO-SS-anoplin] (H-C(X2)GLLKRIKTLL-NH2),8,8,8,4,>32,8,>32,16,
CC[C@H](C)[C@H](NC(=O)[C@H](CCCNC(=N)N)NC(=O)[C@H](CCCCN)NC(=O)[C@H](CC(C)C)NC(=O)[C@H](CC(C)C)NC(=O)CNC(=O)CCCCCCCCc1cn(C[C@H]2O[C@@H](O[C@@H]3[C@@H](O)[C@H](N)C[C@H](N)[C@H]3O[C@H]3O[C@H](CN)[C@@H](O)[C@H](O)[C@H]3N)[C@H](O)[C@@H]2O[C@H]2O[C@@H](CN)[C@@H](O)[C@H](O)[C@H]2N)nn1)C(=O)N[C@@H](CCCCN)C(=O)N[C@H](C(=O)N[C@@H](CC(C)C)C(=O)N[C@@H](CC(C)C)C(N)=O)[C@@H](C)O [NEO-anoplin] (HELM PEPTIDE1{[NC[C@@H]1O[C@H](O[C@H]2[C@@H](O)[C@H](O[C@@H]3[C@@H](O)[C@H](N)C[C@H](N)[C@H]3O[C@H]3O[C@H](CN)[C@@H](O)[C@H](O)[C@H]3N)O[C@@H]2Cn2cc(CCCCCCCCC(=O)[*:2])nn2)[C@H](N)[C@@H](O)[C@@H]1O].G.L.L.K.R.I.K.T.L.L.[am]}$$$$V2.0),,8,16,16,32,,32,16,MBC [1]: 8 to 16 µM; MBC ([7]; MIC wells diluted in fresh MHB): 16 to 32 µM
"NCC[C@H](O)C(=O)N[C@@H]1C[C@H](N)[C@@H](O[C@H]2O[C@H](CN)[C@@H](O)[C@H](O)[C@H]2O)[C@H](O)[C@H]1O[C@H]1O[C@H](CO)[C@@H](O)[C@H](N)[C@H]1O [amikacin (AMK), amikacin, reference compound]",,,>32,,,,,,"MBC [1, 11]: 8 to 16 µM; MBC [2, 12]: > 32 µM; MIC ([3]; Escherichia coli): 4 µM; MIC ([4]; Escherichia coli, WR3551/98): > 32 µM; MIC [5, 13]: 8 µM; MIC ([6]; Staphylococcus aureus): 32 µM; MBC [7, 14]: 8 µM; MBC ([8]; Staphylococcus aureus): ≥ 32 µM"
"CC[C@H](C)[C@H](NC(=O)[C@H](CCCNC(=N)N)NC(=O)[C@H](CCCCN)NC(=O)[C@H](CC(C)C)NC(=O)[C@H](CC(C)C)NC(=O)CNC(=O)[C@@H](N)CSSC[C@H](N)C(=O)NCC(=O)N[C@@H](CC(C)C)C(=O)N[C@@H](CC(C)C)C(=O)N[C@@H](CCCCN)C(=O)N[C@@H](CCCNC(=N)N)C(=O)N[C@H](C(=O)N[C@@H](CCCCN)C(=O)N[C@H](C(=O)N[C@@H](CC(C)C)C(=O)N[C@@H](CC(C)C)C(N)=O)[C@@H](C)O)[C@@H](C)CC)C(=O)N[C@@H](CCCCN)C(=O)N[C@H](C(=O)N[C@@H](CC(C)C)C(=O)N[C@@H](CC(C)C)C(N)=O)[C@@H](C)O [anoplin-SS-anoplin] (HELM PEPTIDE1{C.G.L.L.K.R.I.K.T.L.L.[am]}|PEPTIDE2{C.G.L.L.K.R.I.K.T.L.L.[am]}$PEPTIDE1,PEPTIDE2,1:R3-1:R3$$$V2.0)",8,4,1,16,16,32,32,2,MIC enhancement compared to anoplin monomer ([4]; E. coli WR 3551/98): 32 fold
"NC[C@@H]1O[C@H](O[C@H]2[C@@H](O)[C@H](O[C@@H]3[C@@H](O)[C@H](N)C[C@H](N)[C@H]3O[C@H]3O[C@H](CN)[C@@H](O)[C@H](O)[C@H]3N)O[C@@H]2CO)[C@H](N)[C@@H](O)[C@@H]1O [neomycin (NEO), neomycin, reference compound]",,,,,,,,,"MBC [1, 11]: 4 µM; MBC [2, 12]: 8 µM; MIC ([3]; Escherichia coli): 4 µM; MIC ([4]; Escherichia coli, WR3551/98): 4 µM; MIC [5, 13]: 1 µM; MIC ([6]; Staphylococcus aureus): > 32 µM; MBC [7, 14]: 2 µM; MBC ([8]; Staphylococcus aureus): > 32 µM"
"GLLKRIKTLL-NH2 (C-terminus assumed) [anoplin, reference compound]",≥32,,>32,>32,>32,>32,>32,>32,growth inhibition concentration threshold [9]: higher than 128 μM
